Values quoted from earlier work, collected in patent publication US20170172144A1, “ECTOPARASITE FORMULATION” (priority 2014, published 2017).
Counter-ions that a name gives are not always drawn.

Conditions: qualitative statement

Compound | aqueous solubility
COC(=O)Nc1nc2ccc([S+]([O-])c3ccccc3)cc2[nH]1 (stereo not drawn) [oxfendazole, Oxfendazole] | relatively low solubility
Abamectin | relatively low solubility
c1ccc([C@H]2CN3CCSC3=N2)cc1 [levamisole hydrochloride, Levamisole hydrochloride] | soluble
